IC50 data for nine compounds are collected here from patent US11358949B2, “Carbamate and urea compounds as multikinase inhibitors” (ANGEX PHARMACEUTICAL, INC., priority 2017, dated 2022).

In one test the target is T1, AXL (Homo sapiens, UniProt P30530).
T1 sequence (P30530 26-894): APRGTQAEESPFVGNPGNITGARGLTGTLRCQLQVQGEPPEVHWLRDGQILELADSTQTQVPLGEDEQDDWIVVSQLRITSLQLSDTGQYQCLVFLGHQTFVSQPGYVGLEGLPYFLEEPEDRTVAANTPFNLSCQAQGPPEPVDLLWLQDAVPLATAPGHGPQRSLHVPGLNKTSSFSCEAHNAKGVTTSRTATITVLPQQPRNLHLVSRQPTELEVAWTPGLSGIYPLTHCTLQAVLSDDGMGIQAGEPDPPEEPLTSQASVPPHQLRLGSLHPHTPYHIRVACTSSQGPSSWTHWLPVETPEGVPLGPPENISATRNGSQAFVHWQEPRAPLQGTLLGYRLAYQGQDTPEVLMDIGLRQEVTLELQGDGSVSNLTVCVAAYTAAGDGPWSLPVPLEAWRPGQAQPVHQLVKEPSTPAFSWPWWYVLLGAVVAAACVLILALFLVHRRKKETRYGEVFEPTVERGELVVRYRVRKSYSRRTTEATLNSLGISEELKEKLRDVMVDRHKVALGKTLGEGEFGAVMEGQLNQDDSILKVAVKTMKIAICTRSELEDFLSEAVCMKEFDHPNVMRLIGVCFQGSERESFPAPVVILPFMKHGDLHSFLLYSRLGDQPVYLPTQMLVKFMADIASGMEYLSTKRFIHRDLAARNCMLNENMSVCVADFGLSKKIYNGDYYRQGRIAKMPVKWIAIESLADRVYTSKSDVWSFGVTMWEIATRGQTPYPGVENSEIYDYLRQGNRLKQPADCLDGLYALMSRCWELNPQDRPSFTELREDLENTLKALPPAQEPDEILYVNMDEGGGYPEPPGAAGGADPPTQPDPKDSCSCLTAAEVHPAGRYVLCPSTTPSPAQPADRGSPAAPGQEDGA
Kind of test: HotSpot Kinase Assay, AXL.

In another test the target is FMS (Homo sapiens, UniProt P07333). Kind of test: HotSpot Kinase Assay, FMS.
The next test addresses DDR1 (Homo sapiens, UniProt Q08345). Kind of test: HotSpot Kinase Assay, DDR1.
In the next test the target is c-Kit (Homo sapiens, UniProt P10721). Kind of test: HotSpot Kinase Assay, c-Kit.
Chain of c-Kit (P10721 26-976): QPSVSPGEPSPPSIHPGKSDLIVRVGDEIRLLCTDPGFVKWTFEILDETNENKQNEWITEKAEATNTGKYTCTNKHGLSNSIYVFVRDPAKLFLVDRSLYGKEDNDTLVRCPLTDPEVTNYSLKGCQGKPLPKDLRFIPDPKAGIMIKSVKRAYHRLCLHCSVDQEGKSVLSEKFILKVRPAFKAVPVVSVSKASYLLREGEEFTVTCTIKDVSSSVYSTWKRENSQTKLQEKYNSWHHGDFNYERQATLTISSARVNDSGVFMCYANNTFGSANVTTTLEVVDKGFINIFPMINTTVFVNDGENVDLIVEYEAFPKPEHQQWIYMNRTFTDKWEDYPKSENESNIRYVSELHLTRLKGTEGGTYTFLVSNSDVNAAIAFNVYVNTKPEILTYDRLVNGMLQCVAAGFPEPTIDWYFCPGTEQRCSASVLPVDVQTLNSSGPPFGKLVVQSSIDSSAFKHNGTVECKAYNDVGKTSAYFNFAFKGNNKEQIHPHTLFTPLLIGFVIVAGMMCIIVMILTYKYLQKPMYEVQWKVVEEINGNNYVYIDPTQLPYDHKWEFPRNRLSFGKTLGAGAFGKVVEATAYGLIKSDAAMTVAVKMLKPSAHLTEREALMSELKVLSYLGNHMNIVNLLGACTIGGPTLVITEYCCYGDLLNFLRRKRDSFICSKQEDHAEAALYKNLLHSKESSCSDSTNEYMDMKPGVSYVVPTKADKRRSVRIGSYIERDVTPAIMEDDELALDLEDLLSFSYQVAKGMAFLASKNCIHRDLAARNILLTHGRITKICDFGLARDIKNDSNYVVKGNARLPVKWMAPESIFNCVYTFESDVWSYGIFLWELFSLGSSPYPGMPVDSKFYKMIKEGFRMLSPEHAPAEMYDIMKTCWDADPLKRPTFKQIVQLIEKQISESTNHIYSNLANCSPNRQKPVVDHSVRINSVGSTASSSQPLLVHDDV
A further test has as its target T2, c-MER (Homo sapiens, UniProt Q12866).
T2 sequence (Q12866 21-999): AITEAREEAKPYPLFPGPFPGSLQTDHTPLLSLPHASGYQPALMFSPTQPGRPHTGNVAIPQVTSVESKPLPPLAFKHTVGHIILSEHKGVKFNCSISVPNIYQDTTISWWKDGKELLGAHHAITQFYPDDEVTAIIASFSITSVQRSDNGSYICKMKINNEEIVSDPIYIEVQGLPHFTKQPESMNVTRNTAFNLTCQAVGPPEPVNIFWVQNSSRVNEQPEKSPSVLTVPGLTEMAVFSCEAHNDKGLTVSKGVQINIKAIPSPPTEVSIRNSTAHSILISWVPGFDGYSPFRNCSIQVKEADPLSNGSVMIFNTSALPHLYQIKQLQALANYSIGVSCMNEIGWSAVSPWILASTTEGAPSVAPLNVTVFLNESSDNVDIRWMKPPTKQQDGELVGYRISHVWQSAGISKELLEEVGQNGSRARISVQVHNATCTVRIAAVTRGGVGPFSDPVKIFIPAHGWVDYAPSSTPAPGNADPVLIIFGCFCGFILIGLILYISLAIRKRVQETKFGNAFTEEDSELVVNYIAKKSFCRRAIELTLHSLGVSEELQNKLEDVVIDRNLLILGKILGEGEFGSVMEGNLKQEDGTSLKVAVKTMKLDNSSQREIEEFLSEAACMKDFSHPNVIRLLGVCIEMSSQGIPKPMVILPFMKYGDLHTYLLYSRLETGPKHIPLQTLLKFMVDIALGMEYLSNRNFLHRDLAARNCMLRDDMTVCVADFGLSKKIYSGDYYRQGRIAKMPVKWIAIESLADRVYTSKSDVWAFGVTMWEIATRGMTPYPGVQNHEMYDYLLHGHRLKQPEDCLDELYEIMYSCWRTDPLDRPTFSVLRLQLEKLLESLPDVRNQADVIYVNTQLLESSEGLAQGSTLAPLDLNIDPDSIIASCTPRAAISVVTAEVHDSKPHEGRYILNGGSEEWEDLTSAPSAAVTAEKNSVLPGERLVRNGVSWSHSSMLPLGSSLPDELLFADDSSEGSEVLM
Kind of test: HotSpot Kinase Assay, c-MER.

The target of another test is c-MET (Homo sapiens, UniProt P08581). Briefly: HotSpot Kinase Assay, c-MET.
Chain of c-MET (P08581 25-1390): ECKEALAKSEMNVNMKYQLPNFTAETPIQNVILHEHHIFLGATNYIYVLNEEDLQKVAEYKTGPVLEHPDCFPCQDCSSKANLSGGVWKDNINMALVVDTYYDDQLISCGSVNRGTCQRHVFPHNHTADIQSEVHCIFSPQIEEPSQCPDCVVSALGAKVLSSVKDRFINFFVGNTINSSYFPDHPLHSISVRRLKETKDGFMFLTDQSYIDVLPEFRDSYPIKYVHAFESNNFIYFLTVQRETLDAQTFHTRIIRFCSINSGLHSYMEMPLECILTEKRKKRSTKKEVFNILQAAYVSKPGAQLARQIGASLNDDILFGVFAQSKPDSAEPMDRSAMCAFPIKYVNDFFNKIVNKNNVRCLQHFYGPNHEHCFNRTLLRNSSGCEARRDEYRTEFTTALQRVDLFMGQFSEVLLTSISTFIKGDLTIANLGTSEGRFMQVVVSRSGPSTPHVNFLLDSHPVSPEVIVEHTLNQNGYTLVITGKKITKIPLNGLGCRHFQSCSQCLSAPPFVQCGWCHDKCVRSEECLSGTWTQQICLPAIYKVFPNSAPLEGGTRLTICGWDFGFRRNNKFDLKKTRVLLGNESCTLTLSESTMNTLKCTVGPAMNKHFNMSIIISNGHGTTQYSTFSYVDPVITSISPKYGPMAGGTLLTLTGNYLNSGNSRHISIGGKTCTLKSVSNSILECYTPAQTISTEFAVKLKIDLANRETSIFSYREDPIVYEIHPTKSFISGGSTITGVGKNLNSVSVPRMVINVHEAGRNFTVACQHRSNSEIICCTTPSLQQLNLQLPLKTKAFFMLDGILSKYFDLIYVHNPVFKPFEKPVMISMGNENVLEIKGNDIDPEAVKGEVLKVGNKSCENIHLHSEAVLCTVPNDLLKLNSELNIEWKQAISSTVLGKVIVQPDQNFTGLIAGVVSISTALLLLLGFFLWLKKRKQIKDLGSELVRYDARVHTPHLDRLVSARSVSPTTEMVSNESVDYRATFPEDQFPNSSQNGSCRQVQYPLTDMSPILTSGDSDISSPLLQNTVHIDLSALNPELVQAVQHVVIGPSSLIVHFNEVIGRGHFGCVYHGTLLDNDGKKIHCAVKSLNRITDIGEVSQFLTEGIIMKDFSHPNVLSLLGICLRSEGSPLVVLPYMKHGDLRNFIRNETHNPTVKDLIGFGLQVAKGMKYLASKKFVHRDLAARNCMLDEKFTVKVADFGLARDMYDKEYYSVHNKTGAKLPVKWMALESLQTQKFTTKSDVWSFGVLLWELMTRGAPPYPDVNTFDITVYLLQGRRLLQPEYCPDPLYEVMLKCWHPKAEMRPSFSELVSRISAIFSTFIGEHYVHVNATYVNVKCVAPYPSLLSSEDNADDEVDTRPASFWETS
The target in another test is EPHA2 (Homo sapiens, UniProt P29317). Briefly: HotSpot Kinase Assay, EPHA2.
A further test has as its target LOK/STK10 (Homo sapiens, UniProt O94804). Kind of test: HotSpot Kinase Assay, LOK/STK10.
Another test deals with T3, TYRO3/SKY (Homo sapiens, UniProt Q06418).
T3 sequence (Q06418 41-890): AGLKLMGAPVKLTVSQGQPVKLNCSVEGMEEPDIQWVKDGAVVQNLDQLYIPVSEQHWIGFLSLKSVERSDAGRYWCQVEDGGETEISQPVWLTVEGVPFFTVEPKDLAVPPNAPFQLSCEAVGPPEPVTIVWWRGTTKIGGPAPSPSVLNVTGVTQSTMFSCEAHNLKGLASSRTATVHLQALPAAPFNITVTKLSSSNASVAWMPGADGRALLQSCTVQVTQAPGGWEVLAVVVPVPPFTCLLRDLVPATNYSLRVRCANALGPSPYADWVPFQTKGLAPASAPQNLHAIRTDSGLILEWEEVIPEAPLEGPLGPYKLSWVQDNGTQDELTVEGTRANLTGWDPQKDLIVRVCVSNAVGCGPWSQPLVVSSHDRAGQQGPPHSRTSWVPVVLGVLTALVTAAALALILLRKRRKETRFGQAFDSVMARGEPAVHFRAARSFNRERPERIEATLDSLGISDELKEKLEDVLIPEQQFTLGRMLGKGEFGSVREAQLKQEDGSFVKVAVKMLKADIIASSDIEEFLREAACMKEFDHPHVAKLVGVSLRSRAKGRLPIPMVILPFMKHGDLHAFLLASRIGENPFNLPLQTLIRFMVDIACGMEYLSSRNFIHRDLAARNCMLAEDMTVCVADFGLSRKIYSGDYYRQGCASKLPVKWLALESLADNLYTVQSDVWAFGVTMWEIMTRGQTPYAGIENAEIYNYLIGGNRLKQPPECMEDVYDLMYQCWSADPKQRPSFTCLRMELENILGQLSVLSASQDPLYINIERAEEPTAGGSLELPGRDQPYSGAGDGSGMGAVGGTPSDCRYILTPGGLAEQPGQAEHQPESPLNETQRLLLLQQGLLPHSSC
Briefly: HotSpot Kinase Assay, TYRO3/SKY.

The next test concerns the target KDR/VEGFR2 (Homo sapiens, UniProt P35968). Briefly: HotSpot Kinase Assay, KDR/VEGFR2.

Chain of KDR/VEGFR2 (P35968 20-1356): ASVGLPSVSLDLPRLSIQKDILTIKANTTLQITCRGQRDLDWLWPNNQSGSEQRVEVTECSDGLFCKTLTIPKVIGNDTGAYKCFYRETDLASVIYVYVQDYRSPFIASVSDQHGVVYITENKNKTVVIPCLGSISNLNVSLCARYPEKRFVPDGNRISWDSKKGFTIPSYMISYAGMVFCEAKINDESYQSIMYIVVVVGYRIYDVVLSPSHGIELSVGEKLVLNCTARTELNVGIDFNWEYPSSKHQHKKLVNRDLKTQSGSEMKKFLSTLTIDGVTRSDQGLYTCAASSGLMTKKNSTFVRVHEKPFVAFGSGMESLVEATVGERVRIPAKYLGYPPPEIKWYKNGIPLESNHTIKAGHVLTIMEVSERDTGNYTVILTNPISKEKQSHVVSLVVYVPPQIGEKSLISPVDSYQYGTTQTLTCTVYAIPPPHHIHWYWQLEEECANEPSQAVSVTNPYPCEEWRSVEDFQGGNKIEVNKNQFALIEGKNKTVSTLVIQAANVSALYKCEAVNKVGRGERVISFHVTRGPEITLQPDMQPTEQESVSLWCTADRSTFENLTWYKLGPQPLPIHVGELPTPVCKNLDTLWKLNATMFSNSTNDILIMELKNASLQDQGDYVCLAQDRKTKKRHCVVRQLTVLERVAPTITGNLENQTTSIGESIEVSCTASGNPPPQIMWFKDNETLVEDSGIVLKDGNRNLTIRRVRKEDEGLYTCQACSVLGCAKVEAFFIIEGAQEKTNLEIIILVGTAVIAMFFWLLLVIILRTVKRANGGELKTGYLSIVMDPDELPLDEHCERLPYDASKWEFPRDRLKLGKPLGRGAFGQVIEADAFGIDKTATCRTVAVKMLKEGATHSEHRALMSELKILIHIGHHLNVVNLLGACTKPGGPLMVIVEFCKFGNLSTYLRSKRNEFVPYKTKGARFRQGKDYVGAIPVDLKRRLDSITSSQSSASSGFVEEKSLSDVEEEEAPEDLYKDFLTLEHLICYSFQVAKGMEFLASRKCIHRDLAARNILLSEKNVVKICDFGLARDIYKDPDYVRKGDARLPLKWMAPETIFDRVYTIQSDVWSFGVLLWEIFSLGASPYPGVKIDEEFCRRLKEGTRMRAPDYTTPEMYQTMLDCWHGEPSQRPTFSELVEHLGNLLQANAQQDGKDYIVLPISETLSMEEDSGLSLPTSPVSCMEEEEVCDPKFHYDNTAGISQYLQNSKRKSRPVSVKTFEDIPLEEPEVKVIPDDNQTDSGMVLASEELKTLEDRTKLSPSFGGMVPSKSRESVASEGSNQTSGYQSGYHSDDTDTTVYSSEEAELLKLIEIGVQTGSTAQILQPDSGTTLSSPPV
Chain of DDR1 (Q08345 19-913): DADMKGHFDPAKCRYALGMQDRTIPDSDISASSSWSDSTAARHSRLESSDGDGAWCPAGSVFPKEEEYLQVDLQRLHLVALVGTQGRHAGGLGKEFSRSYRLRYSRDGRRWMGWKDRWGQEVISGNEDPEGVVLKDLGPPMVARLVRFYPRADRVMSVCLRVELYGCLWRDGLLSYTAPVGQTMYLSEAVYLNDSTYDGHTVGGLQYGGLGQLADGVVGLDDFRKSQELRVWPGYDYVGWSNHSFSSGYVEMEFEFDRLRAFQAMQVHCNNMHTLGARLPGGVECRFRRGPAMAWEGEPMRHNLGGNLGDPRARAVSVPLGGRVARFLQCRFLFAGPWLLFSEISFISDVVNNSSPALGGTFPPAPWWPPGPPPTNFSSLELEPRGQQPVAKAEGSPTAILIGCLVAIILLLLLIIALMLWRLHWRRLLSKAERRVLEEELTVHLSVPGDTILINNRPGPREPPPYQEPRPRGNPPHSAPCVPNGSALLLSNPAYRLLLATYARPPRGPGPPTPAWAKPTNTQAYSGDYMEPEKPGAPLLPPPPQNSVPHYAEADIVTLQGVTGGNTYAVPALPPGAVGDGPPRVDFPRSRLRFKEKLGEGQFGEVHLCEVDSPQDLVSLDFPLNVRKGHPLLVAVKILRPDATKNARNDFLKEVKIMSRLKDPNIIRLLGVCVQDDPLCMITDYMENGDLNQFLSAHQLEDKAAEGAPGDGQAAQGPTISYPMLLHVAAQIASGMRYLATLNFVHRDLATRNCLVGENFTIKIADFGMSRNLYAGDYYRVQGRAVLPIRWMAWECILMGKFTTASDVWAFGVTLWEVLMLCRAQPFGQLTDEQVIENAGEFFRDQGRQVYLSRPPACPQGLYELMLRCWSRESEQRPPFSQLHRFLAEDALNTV
Method for DDR1: (§1) Specifically, for each reaction, kinase and substrate were mixed in a pH 7.5 buffer containing 20 mM HEPES, 10 mM MgCl2, 1 mM EGTA [Ethylene glycol-bis(2-aminoethylether)-N,N,N′,N′-tetraacetic acid], 0.02% Brij35, 0.02 mg/mL BSA (Bovine Serum Albumin), 0.1 mM Na3VO4, 2 mM DTT, and 1% DMSO. Compounds were then added to each reaction mixture. After a 20-min incubation, ATP (Sigma-Aldrich) and [γ-^33P] ATP (PerkinElmer) were added at a final total concentration of 100 μM. Reactions were carried out at room temperature for 2 hours and spotted onto P81 ion exchange cellulose chromatography paper (Whatman). […] The percent remaining kinase activity relative to a vehicle-containing (DMSO) kinase reaction was calculated for each kinase/inhibitor pair. […] IC50 values were calculated using Prism 5 (GraphPad).
Method for EPHA2: as §1
Method for KDR/VEGFR2: as §1
Method for TYRO3/SKY: as §1
Method for c-Kit: as §1

For orientation: IC50 means the concentration needed to halve the response being measured. Read a low IC50 as greater potency. For `COc1cc2nccc(Oc3ccc(NC(=O)C4(C(=O)Nc5ccc(F)cc5)CC4)cc3)c2cc1OC(=O)N1CCN(C)C[C@H]1C` [Compound 7-3], the IC50 on AXL, against FMS, at DDR1, against c-Kit, at c-MER and against c-MET was less than 100 nM each time. The IC50 was 100 to 1000 nM at EPHA2, 100 to 1000 nM against LOK/STK10, less than 100 nM at TYRO3/SKY and less than 100 nM at KDR/VEGFR2.

With `COc1cc2c(Oc3ccc(NC(=O)C4(C(=O)Nc5ccc(F)cc5)CC4)cc3)ccnc2cc1OC(=O)N1CCN(C)C[C@@H]1C` [Compound 1-12], the IC50 is less than 100 nM against AXL; 100 to 1000 nM at FMS; less than 100 nM against DDR1; less than 100 nM against c-Kit; less than 100 nM at c-MER; less than 100 nM against c-MET. Also, the IC50 against EPHA2, on LOK/STK10, against TYRO3/SKY and against KDR/VEGFR2 was 100 to 1000 nM each time.

Take `COc1cc2nccc(Oc3ccc(NC(=O)C4(C(=O)Nc5ccc(F)cc5)CC4)cc3)c2cc1OC(=O)N1CCN(C)CC1(C)C` [Compound 7-7]: the IC50 was less than 100 nM against AXL; 100 to 1000 nM against FMS; less than 100 nM against DDR1; less than 100 nM on c-Kit; less than 100 nM on c-MER; less than 100 nM against c-MET. The IC50 against EPHA2 was 100 to 1000 nM; at LOK/STK10 it was more than 1000 nM; at TYRO3/SKY, 100 to 1000 nM; against KDR/VEGFR2 it was 100 to 1000 nM.

For `COc1cc2c(Oc3ccc(NC(=O)C4(C(=O)Nc5ccc(F)cc5)CC4)cc3)ccnc2cc1OC(=O)N1CCCC1` [Compound 1-14], the IC50 is 100 to 1000 nM against AXL; more than 1000 nM against FMS; less than 100 nM against DDR1; 100 to 1000 nM on c-Kit; 100 to 1000 nM at c-MER; less than 100 nM at c-MET. Besides, the half-maximal inhibitory concentration (IC50) against EPHA2, at LOK/STK10, against TYRO3/SKY and against KDR/VEGFR2 was more than 1000 nM throughout.

As to `COc1cc2c(Oc3ccc(NC(=O)C4(C(=O)Nc5ccc(F)cc5)CC4)cc3)ccnc2cc1OC(=O)N1[C@H](C)CN(C)C[C@@H]1C` [Compound 6-3], the IC50 against AXL is less than 100 nM; at FMS it was 100 to 1000 nM; on DDR1 it was less than 100 nM; at c-Kit it was less than 100 nM; against c-MER, less than 100 nM; on c-MET, 100 to 1000 nM. For the same compound, the concentration for half-maximal inhibition (IC50) against EPHA2, at LOK/STK10, against TYRO3/SKY and against KDR/VEGFR2 was 100 to 1000 nM each time.

With `COc1cc2c(Oc3ccc(NC(=O)C4(C(=O)Nc5ccc(F)cc5)CC4)cc3)ccnc2cc1OC(=O)N1CCNC[C@H]1C` [Compound 6-4], the IC50 against AXL, at FMS, on DDR1, at c-Kit, at c-MER and on c-MET was less than 100 nM in each case. Moreover, the IC50 on EPHA2, against LOK/STK10, at TYRO3/SKY and on KDR/VEGFR2 was 100 to 1000 nM in each case.

As for `COc1cc2c(Oc3ccc(NC(=O)C4(C(=O)Nc5ccc(F)cc5)CC4)cc3)ccnc2cc1OC(=O)N1[C@H](C)CNC[C@@H]1C` [Compound 6-2], the IC50 at AXL was less than 100 nM; at FMS it was 100 to 1000 nM; against DDR1, less than 100 nM; against c-Kit, less than 100 nM; against c-MER it was 100 to 1000 nM; on c-MET, 100 to 1000 nM. In addition, the IC50 against EPHA2, against LOK/STK10, against TYRO3/SKY and at KDR/VEGFR2 was 100 to 1000 nM in each case.

In the case of `COc1cc2nccc(Oc3ccc(NC(=O)C4(C(=O)Nc5ccc(F)cc5)CC4)cc3)c2cc1OC(=O)N1CCN(C)CC1` [Compound 5-10], the IC50 against AXL, against FMS, at DDR1, against c-Kit, at c-MER and against c-MET was less than 100 nM throughout. The concentration for half-maximal inhibition (IC50) on EPHA2 is less than 100 nM; on LOK/STK10, 100 to 1000 nM; against TYRO3/SKY, less than 100 nM; on KDR/VEGFR2 it was less than 100 nM.

For the compound `COc1cc2c(Oc3ccc(NC(=O)C4(C(=O)Nc5ccc(F)cc5)CC4)cc3)ccnc2cc1OC(=O)N1CCN(C)[C@H](C)C1` [Compound 2-2], the half-maximal inhibitory concentration (IC50) against AXL, on FMS, against DDR1, at c-Kit, on c-MER and against c-MET was less than 100 nM in each case. Moreover, the IC50 against EPHA2, against LOK/STK10, against TYRO3/SKY and against KDR/VEGFR2 was 100 to 1000 nM throughout.
